The source made the active and inactive calls.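 How the source made its calls: active means compounds giving half or more protection of infected cells from virus-caused growth loss, again on retest; inactive means the rest.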

Results on 71 molecules are retold here after PubChem BioAssay AID179 (DTP/NCI, 2004).

This assay concerns CEM cells HIV-1 protection, formazan growth assay. In words: NCI AIDS Antiviral Assay. Particulars: for IC50: measured here: growth of uninfected CEM cells. The method, boiled down:
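Human CEM cells, uninfected and HIV-1-infected, received five drug concentrations, and growth was read by soluble formazan assay. Compounds giving at least 50% protection were retested; reproducible 100% protection defined confirmed active.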

In the case of `Cc1[nH]c2ccccc2c1C(=O)CC1(O)C(=O)Nc2ccccc21` (stereo not given), the result was inactive.
On the same count and under the same terms, the same measure for `CCN(CC)CC.CCOc1ccc(NC(=O)N=C=[N-])cc1.[CH-]1CCCCC1.[CH-]1CCCCC1.[CH-]1CCCCC1.[Cl-].[Sn+4]`: “inactive”.
Consider `CC1(C)NC(C)(C)/C(=N\O)C(=NO)/C1=N/O`, for which the EC50 is over 200 µM and the IC50 was over 200 µM.
For `Cc1nc(Nc2ccccc2)sc1C(=O)CC(=O)C(=O)NC12CC3CC(CC(C3)C1)C2`, the EC50 was over 81.3 µM and the IC50 was over 81.3 µM.
In the case of `O=S(=O)([O-])c1ccc2c(c1)-c1nc-2nc2[n-]c(nc3nc(nc4[n-]c(n1)c1ccc(S(=O)(=O)[O-])cc41)-c1cc(S(=O)(=O)[O-])ccc1-3)c1ccc(S(=O)(=O)[O-])cc21.[Cu+2].[Na+]`, the EC50 is over 251 µM and the IC50 came to 0.603 µM.
Taken in the same sequence, the figures for `O=c1c2ccccc2nc(N/N=C/c2ccc([N+](=O)[O-])cc2)n1-c1ccccc1` were over 50.1 µM and over 50.1 µM.
The corresponding values for `Cc1cc(=O)oc2c1ccc1occc(=O)c12` are over 100 µM and 56.2 µM.
Taken in the same sequence, the figures for `Cc1cc(N(CCOS(C)(=O)=O)CCOS(C)(=O)=O)ccc1C=Nc1ccc(-c2nc(Cc3ccccc3)sc2C)cc1` were over 200 µM and 0.427 µM.
As to `O=c1[nH]c(=O)n(C2CC(O)C(CO)O2)c2ncncc12` (stereo not given), the EC50 is over 200 µM and the IC50 was over 200 µM.
As to `[O-]c1c(-c2ccccc2)[se]c(-c2ccccc2)[n+]1-c1ccccc1`, the result was inactive.
`N#Cc1ccc(Nc2cnc3cc(N)ccc3n2)cc1`: the EC50 is over 20 µM and the half-inhibitory concentration (IC50) was over 20 µM.
`C=Cc1cncc(C#N)c1CCc1c(C#N)cncc1C=C`: the EC50 was over 34.7 µM and the 50% inhibitory concentration (IC50) is over 34.7 µM.
Consider `CCOC(=O)CN1C(=O)NC(C)(c2ccccc2)C1=O` (stereo not given), for which the EC50 is over 200 µM and the IC50 was over 200 µM.
Turning to `O=C(Nc1nc(C23CC4CC(CC(C4)C2)C3)cs1)c1cc2cc(Br)cc(Br)c2oc1=O`, the EC50 was over 200 µM and the IC50 stood at 135 µM.
On to `C(#C[PH+](c1ccccc1)c1ccccc1)c1ccccc1.C(#C[PH+](c1ccccc1)c1ccccc1)c1ccccc1.C(#C[PH+](c1ccccc1)c1ccccc1)c1ccccc1.[C-]#[O+].[C-]#[O+].[C-]#[O+].[W]`, for which the EC50 was over 0.676 µM and the 50% inhibitory concentration (IC50) was over 0.676 µM.
On to `CC1=NN(c2ccccc2)C(=O)C1N=Nc1ccc(Br)c(C)c1` (stereo not given), for which the result was inactive.
In the case of `CSC1=N[C@H](c2ccccc2)CS1`, the EC50 is over 200 µM and the IC50 is over 200 µM.
In the case of `CCCCCCCCCCCc1c(O)c(O)cc2nc3ccc(SCCC)cc3nc12`, the EC50 was over 16.2 µM and the IC50 was found to be 9.33 µM.
Taken in the same sequence, the figures for `CC(=[OH+])[CH-]C(C)=NCC(C)N=C(C)CC(C)=[OH+].[Cu+2]` (stereo not given) were over 200 µM and 20.9 µM.
Taken in the same sequence, the figures for `CC(C)(C)[Si](C)(C)OCC1OC(n2ccc(=O)[nH]c2=O)C/C1=N/O` (stereo not given) were over 200 µM and 74.1 µM.
The corresponding values for `COC(=O)c1ccccc1NC(c1ccccn1)c1ccc2cccnc2c1O` (stereo not given) are over 25.7 µM and 1.32 µM.
`CC(C)=CCC1(c2ccccc2)Oc2cccnc2-n2cccc2C1=O` (stereo not given): the EC50 was over 200 µM and the IC50 turned out to be 28.8 µM.
Take `CCOP(=O)(OCC)/C(C#N)=C/c1cccc(Cl)c1`: the EC50 was over 224 µM and the IC50 turned out to be 174 µM.
The corresponding values for `O=C(O)c1cc(O)c2ccc(N=Nc3ccc(/C=C/c4ccc(N=Nc5ccc6c(O)cc(C(=O)O)nc6c5O)cc4S(=O)(=O)O)c(S(=O)(=O)O)c3)c(O)c2n1` are 10.2 µM and 50.1 µM.
Regarding `Cc1c(/C=N/N(C)C)oc2c1cc(O)c1ncccc12`, the EC50 was over 37.2 µM and the IC50 is 2.51 µM.
The corresponding values for `CSC(=NC(=O)c1ccccc1Cl)SCCSC(=NC(=O)c1ccccc1Cl)SC` are over 347 µM and over 347 µM.
Take `Cc1cc(C)c2c(=N)c3ccccc3n(CCCCCCCCn3c4ccccc4c(=N)c4c(C)cc(C)nc43)c2n1`: the EC50 is over 2 µM and the IC50 was determined as 0.251 µM.
As for `COc1cc(C)c(O)c(C(=O)O)c1`, the outcome was inactive.
Consider `O=C(O)CSc1c([N+](=O)[O-])cc(C(F)(F)F)cc1[N+](=O)[O-]`, for which the EC50 was over 200 µM and the IC50 turned out to be 43.7 µM.
For `O=C(CCC(=O)Nc1cccc(Cl)c1)CC(=O)c1ccc(F)cc1`, the outcome was inactive.
For `O=C(Cn1c2c(c3ccccc31)CCCC2)N1CCCCC1`, the EC50 was over 200 µM and the IC50 is over 200 µM.
As for `O=C(NCCCCCCCCNC(=O)c1cnc2ccccc2n1)c1cnc2ccccc2n1`, the EC50 was over 398 µM and the half-inhibitory concentration (IC50) is 56.2 µM.
The corresponding values for `CC(=O)OC1(C)C2c3ccccc3C(c3ccccc32)C1(C)C` (stereo not given) are over 85.1 µM and over 85.1 µM.
Taken in the same sequence, the figures for `O=C(O)CSSCC(=O)O` were over 200 µM and over 200 µM.
Taken in the same sequence, the figures for `O=C1C=C(N2CCOCC2)C(=O)c2nccnc21` were over 15.5 µM and 10.2 µM.
Regarding `CCOC(=O)C1=C(C)/C(=C/c2[n-]c(C)c(C(=O)OCC)c2C)N=C1C.CCOC(=O)C1=C(C)/C(=C/c2[n-]c(C)c(C(=O)OCC)c2C)N=C1C.[Cu+2]`, the EC50 was over 200 µM and the IC50 is over 200 µM.
With `N#CCN1c2ccccc2CCC1Cl` (stereo not given), the EC50 is over 200 µM and the IC50 is over 200 µM.
As for `C[n+]1c2ccccc2n2c3ccccc3c(NCCCN3CCOCC3)c(C#N)c21`, the EC50 was over 20 µM and the IC50 came to 0.676 µM.
As to `CCC[CH2][Sn]1([CH2]CCC)[O]C(=O)c2cccc(OC)c2[O]1`, the outcome was inactive.
The same measure, in the same setting: the same measure for `C[C@H]1C[C@H]2[C@@H]3CCC4=CC(=O)C=C[C@]4(C)[C@@]3(F)[C@@H](O)C[C@]2(C)C1=O`: “inactive”.
In the case of `CS(=O)(=O)OCCCSCCSCCCOS(C)(=O)=O`, the EC50 is over 676 µM and the IC50 is over 676 µM.
In the case of `COc1ccccc1/C=C/c1nc2ccccc2o1`, the EC50 is over 200 µM and the IC50 worked out at 107 µM.
The corresponding values for `Cc1ccc(-c2n[nH]c(Cc3nc(-c4ccc(C)cc4)n[nH]3)n2)cc1` are over 200 µM and over 200 µM.
With `Cc1ccccc1NC(=O)Cc1csc2[n+]1C(=O)/C(=C/c1ccc([N+](=O)[O-])cc1)S2`, the EC50 is over 200 µM and the IC50 came to 38.9 µM.
As to `CC(C)(C)O/N=C/c1cc(NC(=S)c2ccsc2)ccc1Cl`, the EC50 was 2.14 µM and the IC50 turned out to be 9.55 µM.
The corresponding values for `Clc1nc2cc3c(cc2n2cccc12)oc1ccccc13` are over 200 µM and over 200 µM.
For `CC1(C)C[C@H]2[C@H](O)C(CO)=C3C(=O)[C@@H](O)[C@]3(C)[C@H]2C1`, the result was inactive.
In the case of `O=C(NCCCCCN1CCC2(CCCCC2)CC1)C(C1CCCCC1)C1CCCCC1`, the EC50 is over 100 µM and the IC50 stood at 9.33 µM.
Taken in the same sequence, the figures for `CC1(C)CC2=C(CC3C4C=C5CC(C)(C)OC(=O)C5(C4)C23)C(=O)O1` (stereo not given) were over 87.1 µM and over 87.1 µM.
Taken in the same sequence, the figures for `CCOc1ccccc1N=NC1C(=O)N(C(=O)CC(=O)Nc2ccccc2OC)N=C1C` (stereo not given) were over 200 µM and over 200 µM.
With `Cc1nnc2sc(/C=C/c3ccccc3)nn12`, the result was inactive and the IC50 is over 200 µM.
With `CN(CC1(CO)CCC1)c1cc(Cl)nc(N)n1`, the EC50 was over 200 µM and the IC50 turned out to be 53.7 µM.
Regarding `Ic1nc(-c2ccccc2)[nH]c1I`, the result was inactive.
With `C=C(CCOC)CCC1CCCCC(=C)[C@H]1O` (stereo not given in full), the EC50 was over 200 µM and the IC50 was over 200 µM.
Consider `CCOC(=O)/C=C/c1ccc(N(C)C)cc1`, for which the EC50 was over 33.1 µM and the IC50 is over 33.1 µM.
Turning to `O=C1[C@@H]2C(c3ccccn3)=NO[C@@H]2C(=O)N1c1ccc(Cc2ccc(N3C(=O)[C@H]4C(c5ccccn5)=NO[C@H]4C3=O)cc2)cc1`, the EC50 was over 8.71 µM and the IC50 is over 8.71 µM.
As to `O=C1/C(=N\O)C2CCC1C2` (stereo not given), the EC50 is over 363 µM and the IC50 is over 363 µM.
Take `CNC=O`: the EC50 was over 200 µM and the IC50 is over 200 µM.
Turning to `COCC(C)(COP(=O)(N1CCOCC1)N1CCOCC1)CC(C)COP(=O)(N1CCOCC1)N1CCOCC1` (stereo not given), the outcome was inactive.
As for `CCOC(=O)c1cc2sc(NC(=O)c3ccco3)nc2o1`, the half-maximal effective concentration (EC50) was 182 µM and the IC50 was over 200 µM.
Taken in the same sequence, the figures for `CSC1=Nc2ccccc2N(C)c2c1c(-c1ccccc1)nn2C` were over 200 µM and 43.7 µM.
With `N#Cc1c(NN)nc(NN)c(C#N)c1-c1ccccc1`, the EC50 was over 97.7 µM and the IC50 was determined as 50.1 µM.
For the molecule `Brc1ccc(N=c2nc3ccccn3n3nc(-c4ccccc4)cc23)cc1`, the EC50 is over 24 µM and the IC50 is over 24 µM.
Turning to `Cc1cc(C)c(C2=[N+]([O-])ON3CCc4ccccc4C23)c(C)c1` (stereo not given), the EC50 is over 115 µM and the IC50 was over 115 µM.
For `O=S1CC(c2ccccc2)=C(c2ccccc2)CS1` (stereo not given), the EC50 is over 200 µM and the IC50 worked out at 47.9 µM.
In the case of `CC(=O)Oc1cc2oc(=O)cc(C)c2cc1OC(C)=O`, the result was inactive.
On to `CCN1CCC(O)(c2ccc([N+](=O)[O-])cc2)C(C(=O)c2ccc([N+](=O)[O-])cc2)C1` (stereo not given), for which the EC50 is over 200 µM and the IC50 was determined as 33.1 µM.
`O=[N+]([O-])C(C(Cl)=C(Cl)Cl)=C(n1nnc2ccccc21)n1nnc2ccccc21`: the EC50 was over 200 µM and the IC50 turned out to be 26.9 µM.
For the molecule `COC(=O)c1cc(C(=CCCCCCl)c2cc(Cl)c(OC)c(C(=O)OC)c2)cc(Cl)c1OC`, the EC50 was 29.5 µM and the IC50 was over 200 µM.
The corresponding values for `O=C1CCc2ccc3c(c21)CC1(Cc2ccccc2C1)C3` are over 200 µM and over 200 µM.
The corresponding values for `CN(C)c1ccc(C2CC(c3ccc4ccccc4c3O)=NN2c2ccc([N+](=O)[O-])cc2[N+](=O)[O-])cc1` (stereo not given) are over 151 µM and 33.1 µM.
